Source: patent US20240360114A1 (SIRONAX LTD., priority 2021, published 2024)

Test system: HT-1080 cells
Assay: HT-1080 cell viability assay (ferroptosis induced by RSL3, Cell Titer-Glo)
Type: cell-based
Conditions: ferroptosis inducer RSL3, 20 hours, ferroptosis inhibitory activity, Table 2
Method: Example 2. Determination of EC50 Values in HT-1080 Cell Viability Assay
HT-1080 (ATCC, CCL-121) cells (6000 in 100 μl) were seeded in 96-well plates (Corning) and cultured in a 37° C. incubator with a humidified atmosphere of 5% CO2 for overnight. Cells were then treated with ferroptosis inducer RSL3 (TargetMol) and a 3-fold, 10-point serial dilution series of compounds with 1.1 μM as the highest concentration, for 20 hours. Cell viability was assessed using the Cell Titer-Glo Kit (Promega). The luminescence intensity was measured with a microplate reader (Envision, PerkinElmer), and cell viability was calculated by normalizing the data to untreated controls. The EC50 values of the compounds (e.g., Compounds 1-573 and 574-661) were calculated in GraphPad Prism (GraphPad Software, Inc., San Diego, CA, USA). The curves were fitted using a non-linear regression model with a sigmoidal dose response.

SMILES	EC50 (Homo sapiens, HT-1080, 20 h)	further results
CC1(C)CCC(c2ccc(NC3CCC(NC(=O)[C@H]4CNC(=O)N4)C3)cc2)CC1 (mixture of isomers) [Compound 155]	0.1 to 100 nM	
NC1CCC(Nc2ncc(N3CCC(C(F)(F)F)CC3)cn2)CC1 (single isomer, unassigned) [Compound 64A]	1000 to 10000 nM	
Cc1nc(N2CCC(C(F)(F)F)CC2)ncc1NC1CCC(N)CC1 (single isomer, unassigned) [Compound 65A, N1-(4-methyl-2-(4-(trifluoromethyl)piperidin-1-yl)pyrimidin-5-yl)cyclohexane-1,4-diamine]	0.1 to 100 nM	
CN(C)C1CCC(NC(=O)C2CCC(Nc3ccc(C4CCC(C)(C)CC4)cc3)CC2)CC1 (single isomer, unassigned) [Compound 76A, (4-(dimethylamino)cyclohexyl)-4-((4-(4,4-dimethylcyclohexyl)phenyl)amino)cyclohexane-1-carboxamide]	0.1 to 100 nM	
CCC(CC)c1ccc(NC2CCC(CN)CC2)cc1 (single isomer, unassigned) [Compound 81A, N-(4-(aminomethyl)cyclohexyl)-4-(pentan-3-yl)aniline]	100 to 1000 nM	
NCC1CCC(Nc2ccc(C3CCCCC3)cc2)CC1 (single isomer, unassigned) [Compound 82A, N-(4-(aminomethyl)cyclohexyl)-4-cyclohexylaniline]	0.1 to 100 nM	
CN(C)C1CCC(Nc2ccc(C3CCC(C)(C)CC3)cc2)CC1 (single isomer, unassigned) [Compound 91A, N1-(4-(4,4-dimethylcyclohexyl)phenyl)-N4,N4-dimethylcyclohexane-1,4-diamine]	0.1 to 100 nM	
NCC1CCC(Nc2ccccc2)CC1 (single isomer, unassigned) [Compound 92A, N-(4-(aminomethyl)cyclohexyl)aniline]		EC50: 1000 to 10000 nM
NCC1CCC(Nc2ccccc2)CC1 (single isomer, unassigned) [Compound 92B, N-(4-(aminomethyl)cyclohexyl)aniline]		EC50: 100 to 1000 nM
CN(C)CC1CCC(Nc2ccc(C3CCC(C)(C)CC3)cc2)CC1 (single isomer, unassigned) [Compound 97A, N-(4-((dimethylamino)methyl)cyclohexyl)-4-(4,4-dimethylcyclohexyl)aniline]	0.1 to 100 nM	
CC1(C)CCC(c2ccc(NC3CCC(CNC(=O)C4CNC(=O)C4)CC3)cc2)CC1 (single isomer, unassigned) [Compound 106A]	0.1 to 100 nM	
CC1(C)CCC(c2ccc(NC3CCC(CNC(=O)[C@@H]4CNC(=O)N4)CC3)cc2)CC1 (single isomer, unassigned) [Compound 107A]	0.1 to 100 nM	
CC(C)(C)c1ccc(NC2CCC(NC(=O)C3CNC(=O)C3)CC2)cc1 (single isomer, unassigned) [Compound 114A, N-(4-((4-(tert-butyl)phenyl)amino)cyclohexyl)-5-oxopyrrolidine-3-carboxamide]	100 to 1000 nM	
CC(C)(C)c1ccc(NC2CCC(NC(=O)[C@H]3CNC(=O)N3)CC2)cc1 (single isomer, unassigned) [Compound 115A]	100 to 1000 nM	
O=C1NC[C@H](C(=O)NCC2CCC(Nc3ccc(C4CCCCC4)cc3)CC2)N1 (single isomer, unassigned) [Compound 117A]	0.1 to 100 nM	
CC1(C)CCC(c2ccc(NC3CCC(N)CC3)cc2)CC1 (single isomer, unassigned) [Compound 120A, N1-(4-(4,4-dimethylcyclohexyl)phenyl)cyclohexane-1,4-diamine]	0.1 to 100 nM	
CC1(C)CCC(c2ccc(NC3CCC(N)C3)cc2)CC1 (single isomer, unassigned) [Compound 121A, N1-(4-(4,4-dimethylcyclohexyl)phenyl)cyclopentane-1,3-diamine]	0.1 to 100 nM	
CCCc1ccc(NC2CCC(N)CC2)cc1 (single isomer, unassigned) [Compound 135A, N1-(4-propylphenyl)cyclohexane-1,4-diamine]	100 to 1000 nM	
NC1CCC(Nc2ccc(C3CCCC3)cc2)CC1 (single isomer, unassigned) [Compound 139A, N1-(4-cyclopentylphenyl)cyclohexane-1,4-diamine]	0.1 to 100 nM	
CCCCOc1ccc(NC2CCC(N)CC2)cc1 (single isomer, unassigned) [Compound 142A, N1-(4-butoxyphenyl)cyclohexane-1,4-diamine]	0.1 to 100 nM	
CC(C)(C)c1ccc(NC2CCC(CNC(=O)[C@H]3CNC(=O)N3)CC2)cc1 (single isomer, unassigned) [Compound 143A]	100 to 1000 nM	
CC(C)(C)c1ccc(NC2CCC(CNC(=O)C3CNC(=O)C3)CC2)cc1 (single isomer, unassigned) [Compound 144A, N-((4-((4-(tert-butyl)phenyl)amino)cyclohexyl)methyl)-5-oxopyrrolidine-3-carboxamide]	100 to 1000 nM	

SMILES	EC50 (Homo sapiens, HT-1080, 20 h)	further results
CC1(C)CCC(c2ccc(NC3CCC(C(N)=O)C3)cc2)CC1 (single isomer, unassigned) [Compound 146A, 3-((4-(4,4-dimethylcyclohexyl)phenyl)amino)cyclopentane-1-carboxamide]	0.1 to 100 nM	
CC1(C)CCC(c2ccc(NC3CCC(CNC(=O)[C@H]4CC(=O)NC(=O)N4)CC3)cc2)CC1 (single isomer, unassigned) [Compound 148A]	0.1 to 100 nM	
CC(C)(C)c1ccc(NC2CCCC(N)C2)cc1 (single isomer, unassigned) [Compound 149A, N1-(4-(tert-butyl)phenyl)cyclohexane-1,3-diamine]	100 to 1000 nM	
CC(C)(C)c1cccc(NC2CCC(N)CC2)c1 (single isomer, unassigned) [Compound 153A, N1-(3-(tert-butyl)phenyl)cyclohexane-1,4-diamine]	100 to 1000 nM	
CC1(C)CCC(c2ccc(NC3CCC(NC(=O)[C@H]4CNC(=O)N4)CC3)cc2)CC1 (single isomer, unassigned) [Compound 156A]	0.1 to 100 nM	
CC(=O)NC1CCC(Nc2ccc(C3CCC(C)(C)CC3)cc2)CC1 (single isomer, unassigned) [Compound 157A, N-(4-((4-(4,4-dimethylcyclohexyl)phenyl)amino)cyclohexyl)acetamide]	0.1 to 100 nM	
CC1(C)CCC(c2ccc(NC3CCC(C(N)=O)CC3)cc2)CC1 (single isomer, unassigned) [Compound 159A, 4-((4-(4,4-dimethylcyclohexyl)phenyl)amino)cyclohexane-1-carboxamide]		EC50: 0.1 to 100 nM
CC1(C)CCC(c2ccc(NC3CCC(C(N)=O)CC3)cc2)CC1 (single isomer, unassigned) [Compound 159B, 4-((4-(4,4-dimethylcyclohexyl)phenyl)amino)cyclohexane-1-carboxamide]		EC50: 100 to 1000 nM
Cc1cc(NC2CCC(N)CC2)cc(C)c1C (single isomer, unassigned) [Compound 182A, N1-(3,4,5-trimethylphenyl)cyclohexane-1,4-diamine]	100 to 1000 nM	
CC(C)(C)c1ccc(NC2CCC(N)CC2)c(Cl)c1 (single isomer, unassigned) [Compound 183A, N1-(4-(tert-butyl)-2-chlorophenyl)cyclohexane-1,4-diamine]	1000 to 10000 nM	
NC1CCC(Nc2cccc3c2CCC3)CC1 (single isomer, unassigned) [Compound 191A, N1-(2,3-dihydro-1H-inden-4-yl)cyclohexane-1,4-diamine]	1000 to 10000 nM	
CN(C)C1CCC(Nc2ccc(C(C)(C)C)cc2)CC1 (single isomer, unassigned) [Compound 193A, N1-(4-(tert-butyl)phenyl)-N4,N4-dimethylcyclohexane-1,4-diamine]	100 to 1000 nM	
CC(C)(C)c1ccc(NC2CCC(CCN)CC2)cc1 (single isomer, unassigned) [Compound 200A, N-(4-(2-aminoethyl)cyclohexyl)-4-(tert-butyl)aniline]	0.1 to 100 nM	
CC1(C)CCC(c2ccc(NC3CCC(O)CC3)cc2)CC1 (single isomer, unassigned) [Compound 205A, 4-((4-(4,4-dimethylcyclohexyl)phenyl)amino)cyclohexan-1-ol]	0.1 to 100 nM	
CC(C)(C)c1ccc(NC2CCC(N)(CO)CC2)cc1 (single isomer, unassigned) [Compound 213A, (1-amino-4-((4-(tert-butyl)phenyl)amino)cyclohexyl)methanol]	100 to 1000 nM	
CC(=O)NC1CCC(Nc2ccc(C(C)(C)C)cc2)CC1 (single isomer, unassigned) [Compound 216A, N-(4-((4-(tert-butyl)phenyl)amino)cyclohexyl)acetamide]	100 to 1000 nM	
CC1(C)CCC(c2ccc(NC3CC(O)C3)cc2)CC1 (single isomer, unassigned) [Compound 228A, 3-((4-(4,4-dimethylcyclohexyl)phenyl)amino)cyclobutan-1-ol]	0.1 to 100 nM	
CC1(N)CCC(Nc2ccc(C(C)(C)C)cc2)CC1 (single isomer, unassigned) [Compound 231A, N1-(4-(tert-butyl)phenyl)-4-methylcyclohexane-1,4-diamine]	0.1 to 100 nM	
CCC(C)(C)c1ccc(NC2CCC(N)CC2)cc1 (single isomer, unassigned) [Compound 232A, N1-(4-(tert-pentyl)phenyl)cyclohexane-1,4-diamine]		EC50 (Homo sapiens): 0.1 to 100 nM
CC1CC(N)CCC1Nc1ccc(C(C)(C)C)cc1 (single isomer, unassigned) [Compound 252A, N1-(4-(tert-butyl)phenyl)-2-methylcyclohexane-1,4-diamine]		EC50: 100 to 1000 nM
CCC(C)c1ccc(NC2CCC(N)CC2)cc1 (single isomer, unassigned) [Compound 289A, 1-N-(4-(sec-butyl)phenyl)cyclohexane-1,4-diamine]		EC50: 0.1 to 100 nM
